Source: PMC7367283, “A PIP2 substitute mediates voltage sensor-pore coupling in KCNQ activation” (Communications Biology, 2020)

Target: T1, KV4.2 (Rattus norvegicus, UniProt Q63881)
T1 sequence (Q63881 1-630): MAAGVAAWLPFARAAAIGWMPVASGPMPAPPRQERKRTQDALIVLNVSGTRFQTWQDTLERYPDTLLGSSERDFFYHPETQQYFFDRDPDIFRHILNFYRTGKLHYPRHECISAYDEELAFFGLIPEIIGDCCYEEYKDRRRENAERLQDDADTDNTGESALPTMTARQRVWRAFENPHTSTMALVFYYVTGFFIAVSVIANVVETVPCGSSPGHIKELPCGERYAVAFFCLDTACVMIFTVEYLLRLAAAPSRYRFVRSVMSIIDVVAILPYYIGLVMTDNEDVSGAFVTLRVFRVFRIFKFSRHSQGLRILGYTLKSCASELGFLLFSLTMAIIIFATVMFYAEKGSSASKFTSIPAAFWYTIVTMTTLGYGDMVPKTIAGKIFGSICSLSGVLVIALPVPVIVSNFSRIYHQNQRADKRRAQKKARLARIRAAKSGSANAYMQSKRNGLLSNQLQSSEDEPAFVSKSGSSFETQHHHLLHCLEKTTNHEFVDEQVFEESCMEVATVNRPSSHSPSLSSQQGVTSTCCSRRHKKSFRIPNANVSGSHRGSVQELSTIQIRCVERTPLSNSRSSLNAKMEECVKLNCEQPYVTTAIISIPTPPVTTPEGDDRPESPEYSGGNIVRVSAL
Assay: Two-electrode voltage clamp of KV4.2 in Xenopus oocytes
Format: cell-based, human
Conditions: 10 µM CP1
From the text: Since CP1 has a similar effect to PIP2 in mediating VSD-pore coupling in KCNQ channels, we tested if CP1 has effects on other ion channels that are also sensitive to PIP2 or are voltage activated and share general structural features of the VSD and the pore with KCNQ. […] On the other hand, NaV1.5 and KV4.2 are voltage-gated ion channels.
Fig. 6 Effects of CP1 on other ion channels expressed in Xenopus oocytes. a Currents of Kir1.1, CaV1.2, NaV1.5, hERG, and KV4.2 before and after application of 10 µM CP1, respectively. The voltages for holding, test, and returning pulses were Kir1.1, 0 mV, −100 to +60 mV, 0; CaV1.2, −100 mV, −100 to +60, −100 mV; NaV1.5, −100, −120 to +40 mV, −120 mV; hERG, −80 mV, −90 to +60 mV, −60 mV; KV4.2, −80 mV, −100 mV to +80 mV, −40 mV; HCN4, −30 mV, −30 to −140 mV, −120 mV. b Current–voltage relations of Kir1.1 channel in the absence or presence of 10 µM CP1 (n = 7). c–g G–V relations of indicated channels with and without 10 µM CP1. The ΔV1/2 of G–V relations (mV) are CaV1.2, 3.38 ± 0.71 mV (c); NaV1.5, −2.26 ± 0.95 mV (d); hERG, 6.85 ± 1.81 mV (e); KV 4.2, −2.26 ± 2.88 mV (f); HCN4, 17.13 ± 1.59 mV (g).
Complementary DNA (cDNA) encoding human KCNQ1 (UniProtKB/Swiss‐Prot under accession no. P51787), KCNQ2 (O43526), KCNQ3 (O43525), KCNE1 (P15382), Kir1.1 (P48048), hERG (Q12809), KV4.2 (Q63881), NaV1.5 (Q14524), NaV β1 (Q07699), CaV1.2 (Q13936), CaV β1a (Q02641), CaV α2/δ1 (P54289), and HCN4 (Q9Y3Q4) were subcloned into oocyte expression vectors, respectively. Site-directed mutations of the KCNQ1 channel were all produced by overlap extension polymerase chain reaction (PCR) with high-fidelity Pfu polymerase (Stratagene, CA). The presence of the desired mutation was verified by sequencing the PCR-amplified regions. All the primer sequences used in this study are available in Supplementary Table 1. The complementary RNA (cRNA) of all these channels and mutations was transcribed in vitro with the T3, T7, or SP6 polymerase mMessage mMachine kit (Invitrogen, Thermo Fisher Scientific, MO).
The whole-oocyte ionic currents were recorded with a GeneClamp 500B amplifier (Axon Instruments, CA) or iTEV90 amplifier (HEKA, Germany) and then sampled at 1 kHz and low-pass-filtered at 2 kHz. The Patchmaster software (HEKA, Germany) was used to acquire data. The Kir1.1 current was recorded with a high K^+ bath solution containing (in mM) 96 KCl, 4 NaCl, 1 CaCl2, 2 MgCl2, and 10 HEPES, pH 7.3–7.4. The HCN4 current was recorded in ND66 solution containing (in mM) 66 NaCl, 32 KCl, 1.8 CaCl2, 1 MgCl2, and 5 HEPES, pH 7.6. All the other potassium channels were recorded in ND96 solution. The currents of CaV1.2 channel were recorded in 40 mM Ba^2+ bath solution containing (in mM) 40 Ba(OH)2, 50 TEA-OH, 2 KOH, and 5 HEPES, adjusted to pH 7.4 with methanesulfonic acid. CP1 (DISODIUM 5-BROMO-2-[9-CHLORO-3-(SULFONATOOXY) NAPHTHO [1,2-B] THIEN-2-YL]-1H-INDOL-3-YL SULFATE, Sigma-Aldrich, MO) and Chromanol 293B (Sigma-Aldrich, MO) were dissolved in bath solutions. All the chemicals were purchased from Sigma-Aldrich. To measure the I–V relations of the Kir1.1 channel, the test voltage was set from −100 to +60 mV for 1 s with 20-mV increments. The test pulses were stepped from a holding potential of 0 mV and then stepped back to 0 mV. The HCN4 currents were recorded by a test pulse between −30 and −140 mV in 10-mV step from a holding potential of −30 mV. For all the other potassium channels and CaV1.2 channel, the holding potential was −80 or −100 mV, and the test pulse was applied with 10-mV increment, which was followed with a repolarization pulse at −40 mV before returning to the holding potential. The durations of test and the repolarization pulse vary for different channels to allow the activation and deactivation of the channel to reach their steady states.

ΔV1/2 of G–V relations: −2.26 ± 2.88 mV
G/Gmax Mean (Fig. 6f) (voltage 0 mV): 0.3489
G/Gmax Mean (Fig. 6f) (voltage 10 mV): 0.4229
G/Gmax Mean (Fig. 6f) (voltage 20 mV): 0.5032
G/Gmax Mean (Fig. 6f) (voltage 30 mV): 0.5901
G/Gmax Mean (Fig. 6f) (voltage 40 mV): 0.6796
G/Gmax Mean (Fig. 6f) (voltage 50 mV): 0.7731
G/Gmax Mean (Fig. 6f) (voltage 60 mV): 0.8507
G/Gmax Mean (Fig. 6f) (voltage 70 mV): 0.9365
G/Gmax Mean (Fig. 6f) (voltage 80 mV): 1.0000
G/Gmax Mean (Fig. 6f) (voltage -10 mV): 0.2734
G/Gmax Mean (Fig. 6f) (voltage -20 mV): 0.2218
G/Gmax Mean (Fig. 6f) (voltage -30 mV): 0.1858
G/Gmax Mean (Fig. 6f) (voltage -40 mV): 0.1969
G/Gmax Mean (Fig. 6f) (voltage -50 mV): 0.2134
Structure (SMILES): O=S(=O)([O-])Oc1c(-c2sc3c(ccc4cccc(Cl)c43)c2OS(=O)(=O)[O-])[nH]c2ccc(Br)cc12.[Na+].[Na+] [CP1, DISODIUM 5-BROMO-2-[9-CHLORO-3-(SULFONATOOXY) NAPHTHO [1,2-B] THIEN-2-YL]-1H-INDOL-3-YL SULFATE]
